{"source": "patent US20250281424A1", "about": "(New York Blood Center, Inc, priority 2020, published 2025)", "key": {"[1]": {"assay": "Experimentally determined pKa", "type": "physicochemical"}, "human PF4": {"target": "T1, human PF4 (Homo sapiens, UniProt P02776)", "T1 construct": "PF4 is a 70 amino acid, lysine-rich 7.8 kDa platelet-specific protein; made in house; host or cells: Escherichia coli BL21DE3 pLysS (pT7-7) and/or Drosophila S2 cells", "T1 sequence (P02776 32-101)": "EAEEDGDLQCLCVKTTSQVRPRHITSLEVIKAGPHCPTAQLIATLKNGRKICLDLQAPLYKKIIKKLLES", "assay": "Inhibition of PF4 tetramer formation (BS3 cross-linking, SDS-PAGE)", "type": "biochemical", "details": "for IC50: read-out: IC50 of PF4 tetramer formation inhibition", "in_short": "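Recombinant human wild-type PF4 (E. coli-expressed, heparin-purified), 10 μg/ml in PBS, incubated with compound 15 min at 37° C or 60 min at room temperature, then cross-linked with 0.2 mM BS3 for 30 min at room temperature. Reducing 12% SDS-PAGE; bands quantified as % tetramer, trimer, dimer, monomer versus compound-free control.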"}, "[2]": {"assay": "Experimentally determined log D", "type": "physicochemical"}, "Heparin-PF4-KKO mice": {"tested_on": "Heparin-PF4-KKO mice", "assay": "In vivo activity, heparin-PF4-KKO induced thrombocytopenia (mouse model of HIT)", "protocol": "Heparin-PF4-KKO mice that were induced to thrombocytopenia were administered the compound of Example 1. The dosing regimen was guided by the PK results in Table 4 (see Example A6). At T0hr, 5 mg/kg of Compound 1 was given by retro-orbital injection. 1000 units/kg heparin was injected subcutaneously at T3hr. At T4hr, 20 mg/kg of KKO antibody was administered by retro-orbital injection. Also at T4hr, an additional 5 mg/kg of the compound was injected intraperitoneally. Platelet count was measured at T8hr."}, "[3]": {"assay": "Pharmacokinetics after IV bolus in CD-1 mice", "type": "in vivo", "protocol": "PK parameters were measured and reported in Table 4 as follows: C0 represents concentration in ng/ml at t=0 min; AUC0-last represents area under the curve for t=0 min to last time point; AUC0-∞ represents area under the curve for t=0 min to infinity."}, "plasma protein": {"tested_on": "plasma protein", "assay": "Plasma protein binding (PPB, mouse)", "type": "in vitro ADME", "from_the_text": "(§1) Certain exemplified compounds were examined for ADMET (absorption, distribution, metabolism, excretion and toxicity) profiling using conventional assays with the results shown in the Tables 3A-3C below."}, "[4]": {"assay": "Plasma protein binding (PPB, mouse)", "type": "in vitro ADME", "details": "mouse, plasma; read-out: PPB mouse (% bound) (converted)", "from_the_text": "as §1"}, "[5]": {"details": "mouse, plasma, CD-1 mice, 1 mg/kg IV bolus"}}, "note": "Where two headings read alike, the source gives them in different places."}
{"smiles": "CC(=O)C1C(=O)c2ccc(C(=O)c3ccc4c(c3)C(=O)C(C(C)=O)C4=O)cc2C1=O", "note": "(stereo not shown) [Example 1, 5,5′-carbonylbis(2-acetyl-1h-indene-1,3(2h)-dione)]", "values": [{"measurement": "pKa", "setting": "[1]", "result": 1.99}, {"measurement": "IC50", "setting": "human PF4", "result": 7, "unit": "µM"}, {"measurement": "logD", "setting": "[2]", "result": 0.53}, {"measurement": "tolerability", "setting": "Heparin-PF4-KKO mice; mice, 5 mg/kg IV and IP doses", "result": "tolerated the 5 mg/kg IV and IP doses of the compound well"}, {"measurement": "heparin-PF4-KKO induced thrombocytopenia in vivo", "setting": "Heparin-PF4-KKO mice; mouse model of HIT (FIG. 4)", "result": "reduces heparin-PF4-KKO induced thrombocytopenia in vivo"}, {"measurement": "platelet counts at 4 hr, remaining mouse", "setting": "Heparin-PF4-KKO mice; one of the four mice", "result": "only a little higher than DMSO controls"}, {"measurement": "platelet counts 4 hr after KKO administration", "setting": "Heparin-PF4-KKO mice; three of the four mice, 5 mg/kg retro-orbital at T0hr + 5 mg/kg IP at T4hr", "result": "> 80 % of baseline"}, {"measurement": "time the concentration was sustained above 1 μM", "setting": "[3]; 1 mg/kg, CD-1 mice (FIG. 5)", "result": "greater than 4 hours"}, {"measurement": "clearance", "setting": "[3]; CD-1 mice, 1 mg/kg IV", "result": "low clearance"}, {"measurement": "half-life", "setting": "[3]; CD-1 mice, 1 mg/kg IV", "result": "long half-life"}, {"measurement": "volume of distribution", "setting": "[3]; CD-1 mice, 1 mg/kg IV", "result": "low clearance and volume of distribution"}, {"measurement": "AUC(0-inf)", "setting": "[3]; [5]", "result": "9350 ± 778", "unit": "ng·h/mL"}, {"measurement": "AUC(0-t)", "setting": "[3]; [5]", "result": "9190 ± 704", "unit": "ng·h/mL"}, {"measurement": "half-life", "setting": "[3]; mouse, plasma, CD-1 mice, 1 mg/kg IV bolus, average of 3 mice, read-out: t1/2 (converted)", "result": "4.59 ± 0.584", "unit": "h"}, {"measurement": "C0", "setting": "[3]; mouse, plasma, CD-1 mice, 1 mg/kg IV bolus, concentration at t=0 min", "result": "15100 ± 2070", "unit": "ng/mL"}, {"measurement": "clearance", "setting": "[3]; mouse, plasma, CD-1 mice, 1 mg/kg IV bolus, read-out: Clearance", "result": "1.79 ± 0.147", "unit": "mL/min/kg"}, {"measurement": "Vd", "setting": "[3]; mouse, plasma, CD-1 mice, 1 mg/kg IV bolus, read-out: Volume of distribution (Vdss)", "result": "0.448 ± 0.0121", "unit": "L/kg"}]}
{"smiles": "CCOC(=O)C1C(=O)c2ccc(C(=O)c3ccc4c(c3)C(=O)C(C(=O)OCC)C4=O)cc2C1=O", "note": "(stereo not shown) [Example 3, diethyl 5,5′-carbonylbis(1,3-dioxo-2,3-dihydro-1h-indene-2-carboxylate)]", "values": [{"measurement": "protein binding", "setting": "plasma protein", "result": "high protein binding"}, {"measurement": "fraction unbound", "setting": "[4]", "result": 0.043}, {"measurement": "inhibition at 100 µM", "setting": "human PF4; 100 μM inhibitor, read-out: % inhibition of PF4 tetramer formation at single concentration of inhibitor", "result": 100, "unit": "%"}, {"measurement": "inhibition of PF4 tetramerization", "setting": "human PF4; FIG. 6A", "result": "dose-dependent inhibition"}, {"measurement": "IC50", "setting": "human PF4", "result": 2, "unit": "µM"}]}
